Values joined by “and” are separate entries in the source; they are usually repeats but may differ in a detail not shown here. Equal entries are not always repeated. Toxic doses and inconclusive results are not listed.
System: BDF1 mice, P388 leukemia ip, median survival T/C
Experiment: NCI In Vivo Anticancer Drug Screen. Data for tumor model P388 Leukemia (intraperitoneal) in B6D2F1 (BDF1) mice
Settings: endpoint: median survival time, higher = longer survival
In short: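 Each value expresses how treatment altered survival: treated-mouse outcome over vehicle-mouse outcome, both groups bearing the transplanted tumour.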

COc1cc(NCc2ccc3nc(N)nc(N)c3c2C)cc(OC)c1OC
T/C (dose: 5.0 mg/kg/injection, schedule: Q01DX009 (ip), vehicle: sodium bicarbonate): 154 % of control
T/C (dose: 10.0 mg/kg/injection, schedule: Q01DX009 (ip), vehicle: sodium bicarbonate): 177 % of control
T/C (dose: 12.5 mg/kg/injection, schedule: Q01DX009 (oral), vehicle: sodium bicarbonate): 113 % of control
T/C (dose: 20.0 mg/kg/injection, schedule: Q01DX009 (ip), vehicle: saline with Tween-80): 255 % of control
T/C (dose: 20.0 mg/kg/injection, schedule: Q01DX009 (ip), vehicle: sodium bicarbonate): 227 % of control
T/C (dose: 30.0 mg/kg/injection, schedule: Q01DX009 (ip), vehicle: saline with Tween-80): 398 % of control
T/C (dose: 40.0 mg/kg/injection, schedule: Q01DX009 (ip), vehicle: sodium bicarbonate): 243 % of control
T/C (dose: 44.0 mg/kg/injection, schedule: Q01DX009 (ip), vehicle: saline with Tween-80): 97 % of control
T/C (dose: 50.0 mg/kg/injection, schedule: Q01DX009 (oral), vehicle: sodium bicarbonate): 170 % of control
T/C (dose: 67.0 mg/kg/injection, schedule: Q01DX009 (ip), vehicle: saline with Tween-80): 95 % of control
T/C (dose: 100.0 mg/kg/injection, schedule: Q01DX009 (oral), vehicle: sodium bicarbonate): 89 % of control

Cc1c2oc3c(C)ccc(C(=O)NC4C(=O)NC(C(C)C)C(=O)N5CCCC5C(=O)N(C)CC(=O)N(C)C(C(C)C)C(=O)OC4C)c3nc-2c(C(=O)NC2C(=O)NC(C(C)C)C(=O)N3CCCC3C(=O)N(C)CC(=O)N(C)C(C(C)C)C(=O)OC2C)cc1=O (configuration not stated)
T/C (dose: 0.24 mg/kg/injection, schedule: Q01DX009 (ip), vehicle: saline + alcohol): 97 % of control
T/C (dose: 0.34 mg/kg/injection, schedule: Q01DX009 (ip), vehicle: saline + alcohol): 101 % of control
T/C (dose: 0.49 mg/kg/injection, schedule: Q01DX009 (ip), vehicle: saline + alcohol): 100 % of control
T/C (dose: 0.7 mg/kg/injection, schedule: Q01DX009 (ip), vehicle: saline + alcohol): 112 % of control
T/C (dose: 1.0 mg/kg/injection, schedule: Q01DX009 (ip), vehicle: saline + alcohol): 106 % of control
T/C (dose: 1.17 mg/kg/injection, schedule: Q04DX003 (ip), vehicle: saline + alcohol): 107 % of control and 124 % of control
T/C (dose: 1.7 mg/kg/injection, schedule: Q04DX003 (ip), vehicle: saline + alcohol): 104 % of control
T/C (dose: 1.94 mg/kg/injection, schedule: Q04DX003 (ip), vehicle: saline + alcohol): 107 % of control
T/C (dose: 2.4 mg/kg/injection, schedule: Q01DX001 (ip), vehicle: saline + alcohol): 112 % of control
T/C (dose: 3.4 mg/kg/injection, schedule: Q01DX001 (ip), vehicle: saline + alcohol): 113 % of control
T/C (dose: 4.9 mg/kg/injection, schedule: Q04DX003 (ip), vehicle: saline + alcohol): 150 % of control
T/C (dose: 5.4 mg/kg/injection, schedule: Q04DX003 (ip), vehicle: saline + alcohol): 168 % of control
T/C (dose: 7.0 mg/kg/injection, schedule: Q04DX003 (ip), vehicle: saline + alcohol): 169 % of control
T/C (dose: 9.0 mg/kg/injection, schedule: Q04DX003 (ip), vehicle: saline + alcohol): 159 % of control and 176 % of control
T/C (dose: 10.0 mg/kg/injection, schedule: Q01DX001 (ip), vehicle: saline + alcohol): 153 % of control
T/C (dose: 15.0 mg/kg/injection, schedule: Q04DX003 (ip), vehicle: saline + alcohol): 183 % of control and 193 % of control

COCCOCCN1CCN(CCCN2c3ccccc3Sc3ccc(C(F)(F)F)cc32)CC1
T/C (dose: 12.5 mg/kg/injection, schedule: Q04DX003 (ip), vehicle: saline): 112 % of control
T/C (dose: 25.0 mg/kg/injection, schedule: Q04DX003 (ip), vehicle: saline): 108 % of control

Cc1ccc(-c2nc3cc(Cl)ccc3c(=O)o2)cc1
T/C (dose: 50.0 mg/kg/injection, schedule: Q01DX009 (ip), vehicle: saline with Tween-80): 110 % of control
T/C (dose: 75.0 mg/kg/injection, schedule: Q01DX009 (ip), vehicle: saline with Tween-80): 104 % of control
T/C (dose: 100.0 mg/kg/injection, schedule: Q01DX009 (ip), vehicle: saline with Tween-80): 100 % of control
T/C (dose: 100.0 mg/kg/injection, schedule: Q04DX003 (ip), vehicle: saline with Tween-80): 109 % of control
T/C (dose: 150.0 mg/kg/injection, schedule: Q01DX009 (ip), vehicle: saline with Tween-80): 109 % of control
T/C (dose: 200.0 mg/kg/injection, schedule: Q01DX009 (ip), vehicle: saline with Tween-80): 120 % of control
T/C (dose: 200.0 mg/kg/injection, schedule: Q04DX003 (ip), vehicle: saline with Tween-80): 109 % of control
T/C (dose: 300.0 mg/kg/injection, schedule: Q01DX009 (ip), vehicle: saline with Tween-80): 95 % of control
